What was measured:
foxtail, giant = assay: Test C postemergence; assay type: in vivo, Setaria faberii
Method in brief: (§1)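 Test chemicals in a non-phytotoxic solvent mixture with surfactant were applied to pots of plants at 2 to 18 cm (1- to 4-leaf stage) for postemergence treatment, grown in a peat-based medium with vermiculite, starter nutrients and dolomitic limestone. Preemergence treatment was to seeds freshly planted in loam soil mixed with sand.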

waterhemp = assay: Test C postemergence; assay type: in vivo, Amaranthus rudis
Method in brief: as §1

sedge, umbrella = assay: Test B flooded paddy test; assay type: in vivo, Cyperus difformis; conditions: 250 g ai/ha, applied to paddy water at 2-leaf stage, visual rating after 13 to 15 d, scale 0 (no effect) to 100 (complete control)
Method in brief: (§2)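 Pots were flooded to 3 cm above the soil at treatment, and compounds were applied directly into the paddy water. That depth was held throughout. After 13 to 15 d in a greenhouse, plants were rated visually against untreated controls.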

rice = assay: Test B flooded paddy test; assay type: in vivo, Oryza sativa; conditions: 250 g ai/ha, applied to paddy water at 2-leaf stage, visual rating after 13 to 15 d, scale 0 (no effect) to 100 (complete control)
Method in brief: as §2

barnyardgrass [1] = assay: Test A postemergence; assay type: in vivo, Echinochloa crus-galli; conditions: 0 to 100 scale (0 no effect, 100 complete control), approx. 10 d
Method in brief: (§3)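 Plant seeds in loam soil blended with sand, then apply test chemical preemergence as a directed soil spray; in parallel, spray potted seedlings (one- to two-leaf, 2 to 10 cm) postemergence. Both treatments use a non-phytotoxic solvent mixture with surfactant.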

barnyardgrass [2] = assay: Test B flooded paddy test; assay type: in vivo, Echinochloa crus-galli; conditions: 250 g ai/ha, applied to paddy water at 2-leaf stage, visual rating after 13 to 15 d, scale 0 (no effect) to 100 (complete control)
Method in brief: as §2

lambsquarters = assay: Test C postemergence; assay type: in vivo, Chenopodium album
Method in brief: as §1

kochia = assay: Test C postemergence; assay type: in vivo, Kochia scoparia
Method in brief: as §1

morningglory = assay: Test C postemergence; assay type: in vivo, Ipomoea coccinea
Method in brief: as §1

oilseed rape = assay: Test C postemergence; assay type: in vivo, Brassica napus
Method in brief: as §1

corn = assay: Test A postemergence; assay type: in vivo, Zea mays; conditions: 0 to 100 scale (0 no effect, 100 complete control), approx. 10 d
Method in brief: as §3

oat, wild = assay: Test C postemergence; assay type: in vivo, Avena fatua
Method in brief: as §1

wheat = assay: Test A postemergence; assay type: in vivo, Triticum aestivum; conditions: 0 to 100 scale (0 no effect, 100 complete control), approx. 10 d
Method in brief: as §3

nutsedge, yellow = assay: Test C postemergence; assay type: in vivo, Cyperus esculentus
Method in brief: as §1

barnyardgrass [3] = assay: Test A preemergence; assay type: in vivo, Echinochloa crus-galli; conditions: 0 to 100 scale (0 no effect, 100 complete control)
Method in brief: as §3

pigweed = assay: Test C postemergence; assay type: in vivo, Amaranthus retroflexus
Method in brief: as §1

ryegrass, Italian = assay: Test C postemergence; assay type: in vivo, Lolium multiflorum
Method in brief: as §1

wheat (winter wheat) = assay: Test C postemergence; assay type: in vivo, Triticum aestivum
Method in brief: as §1

blackgrass = assay: Test C postemergence; assay type: in vivo, Alopecurus myosuroides
Method in brief: as §1

chickweed = assay: Test C postemergence; assay type: in vivo, Stellaria media
Method in brief: as §1

COc1nc(-c2ccccc2)nn1Cc1ccnc(C(F)(F)F)c1 [Compound 32]
Plant response rating (scale of 0 to 100 where 0 is no effect and 100 is complete control) (foxtail, giant; 31 g ai/ha): 10 | Plant response rating (scale of 0 to 100 where 0 is no effect and 100 is complete control) (foxtail, giant; 62 g ai/ha): 10 | Plant response rating (scale of 0 to 100 where 0 is no effect and 100 is complete control) (foxtail, giant; 125 g ai/ha): 10 | Plant response rating (scale of 0 to 100 where 0 is no effect and 100 is complete control) (foxtail, giant; 250 g ai/ha): 10 | Plant response rating (scale of 0 to 100 where 0 is no effect and 100 is complete control) (waterhemp; 31 g ai/ha): 85 | Plant response rating (scale of 0 to 100 where 0 is no effect and 100 is complete control) (waterhemp; 62 g ai/ha): 90 | Plant response rating (scale of 0 to 100 where 0 is no effect and 100 is complete control) (waterhemp; 125 g ai/ha): 90 | Plant response rating (scale of 0 to 100 where 0 is no effect and 100 is complete control) (waterhemp; 250 g ai/ha): 98 | Plant response rating, Sedge, Umbrella, Flood (sedge, umbrella): 75 | Plant response rating, Rice, Flood (rice): 0 | Plant response rating, Barnyardgrass (barnyardgrass [1]; 125 g ai/ha): 30 | Plant response rating, Barnyardgrass (barnyardgrass [1]; 500 g ai/ha): 60 | Plant response rating, Barnyardgrass, Flood (barnyardgrass [2]): 0 | Plant response rating (scale of 0 to 100 where 0 is no effect and 100 is complete control) (lambsquarters; 31 g ai/ha): 100 | Plant response rating (scale of 0 to 100 where 0 is no effect and 100 is complete control) (lambsquarters; 62 g ai/ha): 95 | Plant response rating (scale of 0 to 100 where 0 is no effect and 100 is complete control) (lambsquarters; 125 g ai/ha): 100 | Plant response rating (scale of 0 to 100 where 0 is no effect and 100 is complete control) (lambsquarters; 250 g ai/ha): 98 | Plant response rating (scale of 0 to 100 where 0 is no effect and 100 is complete control) (kochia; 31 g ai/ha): 80 | Plant response rating (scale of 0 to 100 where 0 is no effect and 100 is complete control) (kochia; 62 g ai/ha): 90 | Plant response rating (scale of 0 to 100 where 0 is no effect and 100 is complete control) (kochia; 125 g ai/ha): 90 | Plant response rating (scale of 0 to 100 where 0 is no effect and 100 is complete control) (kochia; 250 g ai/ha): 90 | Plant response rating (scale of 0 to 100 where 0 is no effect and 100 is complete control) (morningglory; 31 g ai/ha): 80 | Plant response rating (scale of 0 to 100 where 0 is no effect and 100 is complete control) (morningglory; 62 g ai/ha): 40 | Plant response rating (scale of 0 to 100 where 0 is no effect and 100 is complete control) (morningglory; 125 g ai/ha): 80 | Plant response rating (scale of 0 to 100 where 0 is no effect and 100 is complete control) (morningglory; 250 g ai/ha): 65 | Plant response rating (scale of 0 to 100 where 0 is no effect and 100 is complete control) (oilseed rape; Oilsee Rape, 250 g ai/ha): 45 | Plant response rating (scale of 0 to 100 where 0 is no effect and 100 is complete control) (oilseed rape; Oilseed Rape, 31 g ai/ha): 20 | Plant response rating (scale of 0 to 100 where 0 is no effect and 100 is complete control) (oilseed rape; Oilseed Rape, 62 g ai/ha): 5 | Plant response rating (scale of 0 to 100 where 0 is no effect and 100 is complete control) (oilseed rape; Oilseed Rape, 125 g ai/ha): 10 | Plant response rating, Corn (corn; 125 g ai/ha): 10 | Plant response rating, Corn (corn; 500 g ai/ha): 30 | Plant response rating (scale of 0 to 100 where 0 is no effect and 100 is complete control) (oat, wild; 31 g ai/ha): 0 | Plant response rating (scale of 0 to 100 where 0 is no effect and 100 is complete control) (oat, wild; 62 g ai/ha): 5 | Plant response rating (scale of 0 to 100 where 0 is no effect and 100 is complete control) (oat, wild; 125 g ai/ha): 5 | Plant response rating (scale of 0 to 100 where 0 is no effect and 100 is complete control) (oat, wild; 250 g ai/ha): 10 | Plant response rating, Wheat (wheat; 125 g ai/ha): 0 | Plant response rating, Wheat (wheat; 500 g ai/ha): 20 | Plant response rating (scale of 0 to 100 where 0 is no effect and 100 is complete control) (nutsedge, yellow; 31 g ai/ha): 10 | Plant response rating (scale of 0 to 100 where 0 is no effect and 100 is complete control) (nutsedge, yellow; 62 g ai/ha): 20 | Plant response rating (scale of 0 to 100 where 0 is no effect and 100 is complete control) (nutsedge, yellow; 125 g ai/ha): 10 | Plant response rating (scale of 0 to 100 where 0 is no effect and 100 is complete control) (nutsedge, yellow; 250 g ai/ha): 25 | Plant response rating, Barnyardgrass (barnyardgrass [3]; 125 g ai/ha): 20 | Plant response rating, Barnyardgrass (barnyardgrass [3]; 500 g ai/ha, approx. 10 d): 80 | Plant response rating (scale of 0 to 100 where 0 is no effect and 100 is complete control) (pigweed; 31 g ai/ha): 98 | Plant response rating (scale of 0 to 100 where 0 is no effect and 100 is complete control) (pigweed; 62 g ai/ha): 95 | Plant response rating (scale of 0 to 100 where 0 is no effect and 100 is complete control) (pigweed; 125 g ai/ha): 98 | Plant response rating (scale of 0 to 100 where 0 is no effect and 100 is complete control) (pigweed; 250 g ai/ha): 98 | Plant response rating (scale of 0 to 100 where 0 is no effect and 100 is complete control) (ryegrass, Italian; 31 g ai/ha): 0 | Plant response rating (scale of 0 to 100 where 0 is no effect and 100 is complete control) (ryegrass, Italian; 62 g ai/ha): 0 | Plant response rating (scale of 0 to 100 where 0 is no effect and 100 is complete control) (ryegrass, Italian; 125 g ai/ha): 0 | Plant response rating (scale of 0 to 100 where 0 is no effect and 100 is complete control) (ryegrass, Italian; 250 g ai/ha): 10 | Plant response rating (scale of 0 to 100 where 0 is no effect and 100 is complete control) (wheat (winter wheat); 31 g ai/ha): 0 | Plant response rating (scale of 0 to 100 where 0 is no effect and 100 is complete control) (wheat (winter wheat); 62 g ai/ha): 0 | Plant response rating (scale of 0 to 100 where 0 is no effect and 100 is complete control) (wheat (winter wheat); 125 g ai/ha): 0 | Plant response rating (scale of 0 to 100 where 0 is no effect and 100 is complete control) (wheat (winter wheat); 250 g ai/ha): 0 | Plant response rating (scale of 0 to 100 where 0 is no effect and 100 is complete control) (blackgrass; 31 g ai/ha): 5 | Plant response rating (scale of 0 to 100 where 0 is no effect and 100 is complete control) (blackgrass; 62 g ai/ha): 5 | Plant response rating (scale of 0 to 100 where 0 is no effect and 100 is complete control) (blackgrass; 125 g ai/ha): 5 | Plant response rating (scale of 0 to 100 where 0 is no effect and 100 is complete control) (blackgrass; 250 g ai/ha): 15 | Plant response rating (scale of 0 to 100 where 0 is no effect and 100 is complete control) (chickweed; 31 g ai/ha): 10 | Plant response rating (scale of 0 to 100 where 0 is no effect and 100 is complete control) (chickweed; 62 g ai/ha): 10 | Plant response rating (scale of 0 to 100 where 0 is no effect and 100 is complete control) (chickweed; 125 g ai/ha): 55 | Plant response rating (scale of 0 to 100 where 0 is no effect and 100 is complete control) (chickweed; 250 g ai/ha): 50

Reference: patent US10681909B2, “Herbicidal triazoles” (FMC Corporation, priority 2014, dated 2020)
